According to patent US10323038B2, “Pyrazole compounds and methods of making and using same” (ABIDE THERAPEUTICS, INC., priority 2015, dated 2019):

Columns and labels:
MAGL = MAGL (Mus musculus (Mouse), UniProt O35678); experiment: In vitro competitive activity-based protein profiling, MAGL (mouse); assay type: biochemical; settings: for inhibition at 1 µM: read-out: MAGL % inh. 1 μM (mouse)
Method: (§1) In Vitro Competitive Activity-Based Protein Profiling.
(§2) Proteomes (mouse brain membrane fraction or cell lysates for mouse assays; human prefrontal cortex or cell membrane fractions for human assays) (50 μL, 1.0 mg/mL total protein concentration) were preincubated with varying concentrations of inhibitors at 37° C. After 30 min, FP—Rh or HT-01 (1.0 μL, 50 μM in DMSO) was added and the mixture was incubated for another 30 min at 37° C. Reactions were quenched with SDS loading buffer (15 μL-4×) and run on SDS-PAGE. Following gel imaging, serine hydrolase activity was determined by measuring fluorescent intensity of gel bands corresponding to MAGL and FAAH using ImageJ 1.43u software.

FAAH = FAAH (Mus musculus (Mouse), UniProt O08914); experiment: In vitro competitive activity-based protein profiling, FAAH (mouse); assay type: biochemical; settings: for inhibition at 1 µM: read-out: FAAH % inh. 1 μM (mouse)
Method: as §1, §2

MAGL, sequence (O35678 whole entry): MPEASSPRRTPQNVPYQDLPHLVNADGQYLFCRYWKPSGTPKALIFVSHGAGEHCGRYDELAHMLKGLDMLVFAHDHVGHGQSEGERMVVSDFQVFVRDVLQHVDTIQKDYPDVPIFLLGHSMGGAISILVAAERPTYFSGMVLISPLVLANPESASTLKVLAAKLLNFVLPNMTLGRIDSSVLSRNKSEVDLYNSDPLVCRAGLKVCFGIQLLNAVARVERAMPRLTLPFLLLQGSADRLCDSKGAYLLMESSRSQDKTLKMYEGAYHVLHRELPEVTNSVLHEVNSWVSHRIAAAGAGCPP
FAAH, sequence (O08914 whole entry): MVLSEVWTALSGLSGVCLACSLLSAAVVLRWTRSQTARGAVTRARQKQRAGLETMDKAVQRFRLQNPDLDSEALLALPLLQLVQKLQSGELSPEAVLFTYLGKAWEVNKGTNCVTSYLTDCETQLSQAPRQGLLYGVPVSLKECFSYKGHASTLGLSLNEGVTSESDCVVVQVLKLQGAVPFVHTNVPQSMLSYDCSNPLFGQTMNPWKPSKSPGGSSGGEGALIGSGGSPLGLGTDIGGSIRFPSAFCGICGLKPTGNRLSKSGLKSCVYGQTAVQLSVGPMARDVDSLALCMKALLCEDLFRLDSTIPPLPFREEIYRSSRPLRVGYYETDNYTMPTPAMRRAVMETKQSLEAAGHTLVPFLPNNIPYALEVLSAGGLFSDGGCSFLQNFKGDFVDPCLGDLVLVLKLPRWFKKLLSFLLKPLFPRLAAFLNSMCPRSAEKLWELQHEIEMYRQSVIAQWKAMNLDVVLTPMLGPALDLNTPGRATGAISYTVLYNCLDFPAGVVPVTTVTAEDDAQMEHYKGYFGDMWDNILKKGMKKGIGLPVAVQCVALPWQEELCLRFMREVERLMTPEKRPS

SMILES	IC50 (MAGL)	inhibition at 1 µM (MAGL)	IC50 (FAAH)	inhibition at 1 µM (FAAH)
CC(=O)N(C)c1cnn(C(=O)N2CCC3(CCN(Cc4ccc(Cl)cc4Cl)C3)C2)c1 (centres unmarked) [Example 51, N-(1-(7-(2,4-dichlorobenzyl)-2,7-diazaspiro[4.4]nonane-2-carbonyl)-1H-pyrazol-4-yl)-N-methylacetamide]	≤ 100 nM	≥ 75%	≤ 100 nM	≥ 75%
CC(=O)N(C)c1cnn(C(=O)N2CC3CN(Cc4cc(Cl)cc(N5CCN(C6CC6)CC5)c4)CC3C2)c1 (centres unmarked) [Example 120, N-(1-(5-(3-chloro-5-(4-cyclopropylpiperazin-1-yl)benzyl)octahydropyrrolo[3,4-c]pyrrole-2-carbonyl)-1H-pyrazol-4-yl)-N-methylacetamide]	≤ 100 nM	≥ 75%	≤ 100 nM	≥ 75%
CC(=O)N(C)c1cnn(C(=O)N2CC3CN(Cc4ccc(Oc5ccccc5)cc4)CC3C2)c1 (centres unmarked) [Example 241, N-methyl-N-(1-(5-(4-phenoxybenzyl)octahydropyrrolo[3,4-c]pyrrole-2-carbonyl)-1H-pyrazol-4-yl)acetamide]	≤ 100 nM	≥ 75%	≤ 100 nM	≥ 75%
CC(=O)N(C)c1cnn(C(=O)N2CC3(CCN(Cc4ccc(Cl)cc4)CC3)C2)c1 [Example 84, N-(1-(7-(4-chlorobenzyl)-2,7-diazaspiro[3.5]nonane-2-carbonyl)-1H-pyrazol-4-yl)-N-methylacetamide]	–	50 to 75%	–	≥ 75%
CC(=O)N(C)c1cnn(C(=O)N2CC3CN(Cc4ccc(-c5cnccn5)cc4Cl)CC3C2)c1 (centres unmarked) [Example 266, N-(1-(5-(2-chloro-4-(pyrazin-2-yl)benzyl)octahydropyrrolo[3,4-c]pyrrole-2-carbonyl)-1H-pyrazol-4-yl)-N-methylacetamide]	–	≥ 75%	–	≥ 75%
CC(=O)N(C)c1cnn(C(=O)N2CC3CN(Cc4cccc(Cl)c4)CC3C2)c1 (centres unmarked) [Example 10, N-(1-(5-(3-chlorobenzyl)octahydropyrrolo[3,4-c]pyrrole-2-carbonyl)-1H-pyrazol-4-yl)-N-methylacetamide]	100 to 1000 nM	≥ 75%	100 to 1000 nM	≥ 75%
CC(=O)N(C)c1cnn(C(=O)N2CC3CN(Cc4cccc(N5CCOCC5)c4)CC3C2)c1 (centres unmarked) [Example 121, N-methyl-N-(1-(5-(3-morpholinobenzyl)octahydropyrrolo[3,4-c]pyrrole-2-carbonyl)-1H-pyrazol-4-yl)acetamide]	–	≥ 75%	–	50 to 75%
CC(=O)N(C)c1cnn(C(=O)N2CCC3(CC2)CN(Cc2ccccc2N2CCCC2)C3)c1 [Example 45, N-methyl-N-(1-(2-(2-(pyrrolidin-1-yl)benzyl)-2,7-diazaspiro[3.5]nonane-7-carbonyl)-1H-pyrazol-4-yl)acetamide]	–	≥ 75%	–	0 to 25%
CC(=O)N(C)c1cnn(C(=O)N2CC3CN(Cc4ccc(-c5nccs5)cc4Cl)CC3C2)c1 (centres unmarked) [Example 267, N-(1-(5-(2-chloro-4-(thiazol-2-yl)benzyl)octahydropyrrolo[3,4-c]pyrrole-2-carbonyl)-1H-pyrazol-4-yl)-N-methylacetamide]	–	≥ 75%	–	≥ 75%
CC(=O)N(C)c1cnn(C(=O)N2CC3CN(Cc4cccc(C)c4)CC3C2)c1 (centres unmarked) [Example 92, N-methyl-N-(1-(5-(3-methylbenzyl)octahydropyrrolo[3,4-c]pyrrole-2-carbonyl)-1H-pyrazol-4-yl)acetamide]	100 to 1000 nM	≥ 75%	≤ 100 nM	≥ 75%
CC(=O)N(C)c1cnn(C(=O)N2CCC3(CCN(Cc4ccc(N5CCCC5)c(Cl)c4)C3)C2)c1 (centres unmarked) [Example 67, N-(1-(7-(3-chloro-4-(pyrrolidin-1-yl)benzyl)-2,7-diazaspiro[4.4]nonane-2-carbonyl)-1H-pyrazol-4-yl)-N-methylacetamide]	100 to 1000 nM	≥ 75%	≤ 100 nM	≥ 75%
CC(=O)N(C)c1cnn(C(=O)N2CC3CN(Cc4ccc(N5CCOCC5)cc4C)CC3C2)c1 (centres unmarked) [Example 17, N-methyl-N-(1-(5-(2-methyl-4-morpholinobenzyl)octahydropyrrolo[3,4-c]pyrrole-2-carbonyl)-1H-pyrazol-4-yl)acetamide]	–	≥ 75%	–	≥ 75%
CC(=O)N(C)c1cnn(C(=O)N2CCN(Cc3cccc(C)c3)CC2)c1 [Example 206, N-methyl-N-(1-(4-(3-methylbenzyl)piperazine-1-carbonyl)-1H-pyrazol-4-yl)acetamide]	≤ 100 nM	≥ 75%	100 to 1000 nM	≥ 75%

Next, values leading:

IC50 (MAGL)	inhibition at 1 µM (MAGL)	IC50 (FAAH)	inhibition at 1 µM (FAAH)	SMILES
–	50 to 75%	–	0 to 25%	CC(=O)N(C)c1cnn(C(=O)N2CCC3(CC2)CN(Cc2ccccc2N2CCOCC2)C3)c1 [Example 46, N-methyl-N-(1-(2-(2-morpholinobenzyl)-2,7-diazaspiro[3.5]nonane-7-carbonyl)-1H-pyrazol-4-yl)acetamide]
–	≥ 75%	–	≥ 75%	COc1cccc(CN2CCN(C(=O)n3cc(N(C)C(C)=O)cn3)CC2)c1 [Example 207, N-(1-(4-(3-methoxybenzyl)piperazine-1-carbonyl)-1H-pyrazol-4-yl)-N-methylacetamide]
100 to 1000 nM	≥ 75%	1000 to 10000 nM	≥ 75%	CC(=O)N(C)c1cnn(C(=O)N2CCN(Cc3ccc(Cl)cc3)CC2)c1 [Example 194, N-(1-(4-(4-chlorobenzyl)piperazine-1-carbonyl)-1H-pyrazol-4-yl)-N-methylacetamide]
≤ 100 nM	≥ 75%	≤ 100 nM	≥ 75%	CC(=O)N(C)c1cnn(C(=O)N2CCN(Cc3ccc(-c4ccccc4)cc3C)CC2)c1 [Example 201, N-methyl-N-(1-(4-((3-methylbiphenyl-4 yl)methyl)piperazine-1-carbonyl)-1H-pyrazol-4-yl)acetamide]
≤ 100 nM	≥ 75%	≤ 100 nM	≥ 75%	CC(=O)N(C)c1cnn(C(=O)N2CC3CN(Cc4ccc(N5CCCC5)cc4C(F)(F)F)CC3C2)c1 (centres unmarked) [Example 93, N-methyl-N-(1-(5-(4-(pyrrolidin-1-yl)-2-(trifluoromethyl)benzyl)octahydropyrrolo[3,4-c]pyrrole-2-carbonyl)-1H-pyrazol-4-yl)acetamide]
–	≥ 75%	–	25 to 50%	CC(=O)N(C)c1cnn(C(=O)N2CCC3(CC2)CN(Cc2ccc(N4CCOCC4)cc2C)C3)c1 [Example 29, N-methyl-N-(1-(2-(2-methyl-4-morpholinobenzyl)-2,7-diazaspiro[3.5]nonane-7-carbonyl)-1H-pyrazol-4-yl)acetamide]
≤ 100 nM	≥ 75%	≤ 100 nM	≥ 75%	CC(=O)N(C)c1cnn(C(=O)N2CC3CN(Cc4ccc(Oc5ccc(Cl)cc5)cc4)CC3C2)c1 (centres unmarked) [Example 245, N-(1-(5-(4-(4-chlorophenoxy)benzyl)octahydropyrrolo [3,4-c]pyrrole-2-carbonyl)-1H-pyrazol-4-yl)-N-methylacetamide]
